Data on five molecules can be found in patent US20250214951A1, “3-PHENYLISOXAZOLE DERIVATIVE, AND PHARMACEUTICAL COMPOSITION FOR PREVENTING OR TREATING EYE DISEASE, CONTAINING SAME AS ACTIVE INGREDIENT” (VASTHERA CO., LTD., priority 2022, published 2025).

Test [1] deals with A2E-BDP in ARPE-19 cells. The test can be described thus: A2E-BDP removal ability by concentration of other example compounds. The conditions noted are these: indicated concentrations; FIG. 13. Type of test: cell-based, human. The method, then:
(§1) The human retinal pigment epithelial cell line (ARPE-19) used in the experiment was provided by ATCC (American Type Culture Collection). The ARPE-19 cell line was cultured in DMEM medium containing 10% FBS. After culture, the cells were dispensed into 96-well plates at a concentration of 4×10^3 cells/well and cultured for 24 hours. The ARPE-19 cell line was treated with A2E-fluorescent labeling substance (A2E-BDP) at a concentration of 10 μM for 24 hours to induce the accumulation of A2E-BDP in the ARPE-19 cell line.
(§2) In order to evaluate the intracellular A2E removal ability of the compound of the present invention, an easily detectable A2E-fluorescent labeling substance (A2E-BDP) was used. The ARPE-19 cells prepared by the above method were treated with each test compound at a concentration of 50 μM once, and then cultured for 24 hours. The cells were lysed by adding a cell lysis buffer containing a protease inhibitor (50 mM Tris-chloride, pH 8.0, 150 mM sodium chloride, 1% NP-40, 1% sodium deoxycholate, 1% sodium dodecyl sulfate, and 2 mM ethylenediamine tetraacetic acid) to each 96-well. The prepared cell lysate was transferred to a white 96-well plate, and the fluorescence intensity was measured using a fluorescence microplate reader (VICTOR™ X3, Perkin Elmer, USA) (excitation 485 nm, emission 535 nm).
The A2E-fluorescent labeling substance (A2E-BDP) removal ability was evaluated according to Experimental Example 1 (except that the test compound was treated at the indicated concentration).

Test [2] relates to p62 protein phosphorylated at serine 349 (p-p62 (S349)). In words: Autophagy activation by increase of p-p62 (S349), Western immunoblotting. In kind it is cell-based, human. The note with it: indicated concentrations; FIG. 14. As for the experimental part:
The cells were treated with the test compounds at the indicated concentrations, and the autophagy activation effect through the increase of p62 protein (p-p62 (S349)) phosphorylated at serine 349 residue was measured by Western immunoblotting using an anti-p-p62 antibody, and the results are shown in FIG. 14. The increase in the intracellular P-p62 ([…]) level is one of the major indicators of autophagy activation.

For test [3], the system named is A2E-BDP present in human retinal pigment epithelial cells (ARPE-19). In words: Screening of ability to remove A2E-fluorescent labeling substance (A2E-BDP), lysate fluorescence. The note with it: ARPE-19, 24 h, ARPE-19 loaded with 10 μM A2E-BDP 24 h, test compound 50 μM once, fluorescence ex 485/em 535 nm, read-out: Capacity (%) to remove A2E-BDP at 50 μM. In kind it is cell-based. The method, then:
as §1, §2

The subject of test [4] is A2E-BDP in ARPE-19 cells. The test can be described thus: Removal of A2E-BDP by concentration, fluorescence and phase contrast microscopy. The conditions noted are these: ARPE-19 with A2E-BDP; 10, 25, 50 μM, 24 h; FIG. 1. In kind it is cell-based, human. As for the experimental part: ARPE-19 cell line was dispensed into a 24-well plate at a concentration of 4×10^4 cells/well and cultured for 24 hours. In order to induce A2E-BDP accumulation in ARPE-19 cell line, the cells were treated with […] of 10 μM for 24 hours. The A2E-BDP-containing ARPE-19 cells were treated with compound 17 (10, 25, 50 μM) for 24 hours. The level of A2E-BDP in each cell was measured as a fluorescence image at 510 nm using a Nikon Eclipse Ti—U fluorescence microscope (Tokyo, Japan). In addition, the change in cell number according to compound treatment was observed using a general phase contrast microscope, and the results are shown in FIG. 1. Meanwhile, lutein was used as a control substance.

As for `COc1ccc(Br)cc1-c1cc(COCc2ccccc2)on1` [Example 11, 5-((benzyloxy)methyl)-3-(5-bromo-2-methoxyphenyl)isoxazole], in the test on A2E-BDP in ARPE-19 cells [1], the “A2E-BDP removal ability by concentration (amount of A2E)” value (“A2E-BDP removal ability” below) was “concentration-dependent decrease in the amount of A2E”. Besides, in test [2], the “autophagy activation through increase of p-p62 (S349)” value is listed as “activated autophagy in a concentration-dependent manner”. The inhibition at 50 µM in test [3] is ≥ 60%.

On to `C=CCc1ccc(OC)c(-c2cc(COCc3ccccc3)on2)c1` [Example 18, 3-(5-allyl-2-methoxyphenyl)-5-((benzyloxy)methyl)isoxazole], for which, in the test on A2E-BDP in ARPE-19 cells [1], the “A2E-BDP removal ability” value is “concentration-dependent decrease in the amount of A2E”. Besides, in test [2], the “autophagy activation through increase of p-p62 (S349)” value was “activated autophagy in a concentration-dependent manner”. The inhibition at 50 µM in test [3] was ≥ 60%.

Take `COc1ccc(Br)cc1-c1cc(CN2CCN(C(=O)OC(C)(C)C)CC2)on1` [Example 21, tert-butyl 4-((3-(5-bromo-2-methoxyphenyl)isoxazole-5-yl)methyl)piperazine-1-carboxylate]: in the test with A2E-BDP in ARPE-19 cells [1], the “A2E-BDP removal ability” value was “concentration-dependent decrease in the amount of A2E”. Also, the “autophagy activation through increase of p-p62 (S349)” value in test [2] was “activated autophagy in a concentration-dependent manner”. Moreover, the inhibition at 50 µM in test [3] is ≥ 60%.

Turning to `CCCc1ccc(OC)c(-c2cc(CN3CCN(C(=O)OC(C)(C)C)CC3)on2)c1` [Example 26, tert-butyl 4-((3-(2-methoxy-5-propylphenyl)isoxazole-5-yl)methyl)piperazine-1-carboxylate], the “A2E-BDP removal ability” value in the test with A2E-BDP in ARPE-19 cells [1] is “concentration-dependent decrease in the amount of A2E”. The “autophagy activation through increase of p-p62 (S349)” value in test [2] was “activated autophagy in a concentration-dependent manner”. Also, in test [3], the inhibition at 50 µM is ≥ 60%.

Take `CC1=C[C@H](O)CC(C)(C)[C@H]1/C=C/C(C)=C/C=C/C(C)=C/C=C/C=C(C)/C=C/C=C(C)/C=C/C1=C(C)C[C@@H](O)CC1(C)C` [lutein, reference compound]: the “A2E-BDP fluorescence intensity (fluorescence microscope)” value in the test on A2E-BDP in ARPE-19 cells [4] was “a decrease in fluorescence intensity was observed”.
